These results are taken from BindingDB's records for doi:10.1101/2020.12.16.422677 (Fraunhofer Institute for Translational Medicine and …, 2020).

pIC50: −log10 of the molar value.

The target in the test is Replicase polyprotein 1ab (Severe acute respiratory syndrome coronavirus 2, UniProt P0DTD1). Kind of test: Hit profiling assay with DTT.
As for `CN1CCN(C(c2ccc(C(F)(F)F)cc2)c2ccc3cccnc3c2O)CC1` (configuration not stated), the pIC50 (as a rule, the IC50 on a negative log10 scale, so that one unit is a factor of ten) is 5.87. With `Cn1sc(=O)n(Cc2ccccc2)c1=O` [4-Benzyl-2-methyl-1,2,4-thiadiazolidine-3,5-dione], the negative logarithm of the IC50 (pIC50) is 6.85. In the case of `O=C1C=Cc2cc(Br)ccc2C1=O` [Bonaphthone], the pIC50 was 7.05. On to `CCOC(=O)Cc1ccc(-c2ccccc2)cc1` [Felbinac ethyl], for which the pIC50 was 7.10.

In turn, `Cc1c(-c2cnccn2)ssc1=S` [OLTIPRAZ] had a pIC50 of 6.96. Compound `N#CSc1cc(SC#N)c(N)nc1N` [PR-619] showed a pIC50 of 5.36.

In turn, `COC(=O)CC[C@H](NC(=O)[C@H](CC(=O)OC)NC(=O)OCc1ccccc1)C(=O)N[C@H](C(=O)N[C@@H](CC(=O)OC)C(=O)CF)C(C)C` [US9345789, Z-DEVD-FMK] showed a pIC50 of 8.00.
